Data as given in patent publication US9511111B2, “Methods for the treatment of X-linked hypophosphatemia and related disorders” (WISCONSIN ALUMNI RESEARCH FOUNDATION, priority 2010, dated 2016).
“Also recorded” adds a separate entry of the source.

Columns and labels:
[1] = tested on: MOB cells (hTert osteoblasts); experiment: mRNA expression in MOB cell line treated with D6R; assay type: cell-based
Method: (§1) The dose-dependent effects of D6R (0-200 μM) on SPC2 activity in hTert osteoblasts (MOB) and MC3T3 osteoblasts in culture were also examined. […] Treatment of MC3T3 cells for a similar period likewise increased enzyme activity at 200 μM (124±14 vs 171±7 fluorescent units/min; p<0.05). Treatment of the MOB cell line with D6R, and the resulting increase in SPC2 enzyme activity decreased Fgf23 mRNA expression (1.0±0.7 vs 0.2±0.1 fold; p<0.001).

SPC2 [2] = experiment: SPC2 activity in hTert osteoblasts (MOB) in culture; assay type: cell-based; settings: D6R 50 μM, p<0.01
Method: as §1

normal mice = experiment: In vivo daily ip injection of D6R in normal mice; parameters: species or system mouse; settings: D6R treated, daily ip for 5 weeks, saline 200 ± 15.5, p<0.001
Method: (§2) In vivo injection of D6R in normal and hyp mice: 3-week old normal and hyp mice were randomly separated into two groups for each strain. One group of mice received daily ip injection of saline. The other group of mice received daily ip injection of D6R 1.5 μg/kg/day for 5 weeks. Blood samples were obtained every 3 days via retro-orbital bleedings. At the end of the in vivo injection period, the animals were euthanized with an overdose of sodium pentobarbital (65 mg/kg). The final blood sample was collected by cardiac puncture for large volume of serum preparation. Kidney and femoral bone samples were collected for total RNA and protein extractions.
(§3) Biochemistry measurements: Serum Pi levels were measured using Phosphorus Liqui-UV kit from Stanbio Laboratory (Boerne, Tex.). Serum Ca levels were measured using calcium Liquicolor kit from Stanbio following the manufacturer's protocols. Serum intact FGF-23 was measured employing a FGF-23 ELISA kit obtained from Kainos Laboratories, Japan. Serum C-terminal FGF-23 was measured using ELISA kit from Immunotopics, CA.

SPC2 [3] = experiment: SPC2 activity in MC3T3 osteoblasts in culture; assay type: cell-based; settings: MC3T3 cells, D6R 200 μM, similar period (48 hours); control 124±14; p<0.05
Method: as §1

hyp-mice = experiment: In vivo daily ip injection of D6R in hyp mice (murine model of XLH); parameters: species or system mouse
Method: as §2, with “The other group of mice received daily ip injection of D6R 1.5 μg/kg/day for 5 weeks.” left out
as §3
Real-time RT-PCR for mRNA expression: Total RNA was isolated from kidney samples and femurs. The femurs were trimmed of all fat, homogenized into fine powder in liquid nitrogen using porcelain motor and pestle. Total RNA was then extracted using TRIzol Reagent (Invitrogen, CA) following the manufacturer's protocol. Kidney samples were rinsed free of blood using ice-cold PBS buffer. Then the kidney was homogenized in TRIzol Reagent using mortor and pestle. Then, the renal total RNA was isolated following the manufacturer's protocol. RT reactions were performed using Bio-Rad iScript cDNA synthesis kit (Bio-Rad, CA) with poly-A primers. FGF-23 mRNA, as well as Npt2 mRNA and 25(OH)D3-1α-hydroxylase mRNA were quantitated by real-time PCR using gene specific primers.
Western blot for protein expression: Kidney proteins were isolated using sucrose buffer containing 20 mM HEPES, 1 mM EDTA, 255 mM sucrose, 0.4 mM phenylmethylsulfonyl fluoride, and 2 μg/ml leupeptin. The homogenate was centrifuged at 1,500 g for 15 min, and the pellet containing mitochondrial protein, including 25(OH)D-1α-hydroxylase, was re-suspended in the same buffer, aliquoted, and stored at −80° C. until use. The supernatant that contained the plasma membrane protein obtained after centrifugation was also collected for the measurement of Npt2 protein. Bone samples were homogenized into fine powder in liquid nitrogen. Protein contents were isolated using T-PER tissue protein extraction reagent with Halt protease inhibitor cocktail (Thermo Scientific, Rockford, Ill.).
A 20 μg aliquot of the respective protein extracts was electrophoresed in 10% SDS-PAGE gel and transferred onto a nitrocellulose membrane. The membrane was then washed and probed with specific antibodies and subsequently with specific secondary antibodies conjugated with HRP. To quantitate the immunoblotting signal, 6 ml of chemiluminescence detection solution (ECL plus, Amersham, UK) was added, and the signal was detected directly by the fluorescent scanner (Storm 860, Amersham, UK). Band density was analyzed using ImageQuant 5.2 software (Molecular Dynamics, Sunnyvale, Calif.). The antibody was then removed by incubating the membrane in reprobing solution (62.5 mM Tris-HCl, 2% SDS, and 100 mM 2-mercaptoethanol, pH 6.7) for 30 min, 50° C. The membrane was then blocked and probed with specific anti-β-actin antibody to verify the loading equivalence among samples.
High-resolution radiography (x-ray) for the femus: mouse femurs were extracted and incubated in lysis buffer (2×SSC, 0.2% SDS, 10 mM EDTA, 10 mg/ml proteinase K) for 2 days. After the surrounding muscles were digested, the femurs were washed in PBS buffer and X-rayed on a Faxitron model MX-20 Specimen Radiography System with a digital camera attached (Faxitron x-ray Corp., Buffalo Grove, Ill.). […]

SPC2 enzyme activity (SPC2 [3]): 171±7 fluorescent units/min
Substance: hexa-D-arginine [D6R]
Fgf23 mRNA expression ([1]; MOB cell line treated with D6R, control 1.0±0.7, p<0.001): 0.2±0.1 fold | SPC2 mRNA expression ([1]; MOB cells treated with D6R): without alteration | 7B2 mRNA expression ([1]; MOB cells treated with D6R, control 1.0±0.2, p<0.001): 3.6±0.4 fold | SPC2 activity, h-Tert osteoblasts (SPC2 [2]; control 121 ± 18): 329 ± 17 fluorescent units | SPC2 activity (SPC2 [2]; hTert osteoblasts, 48 hours, control 121±18): 329±17 fluorescent units/min | serum FGF23 concentration (normal mice): 120 ± 12.5 | mineral apposition rate (hyp-mice; D6R treated hyp-mice, FIGS. 12-13): normalization; also recorded: restoration of normal bone mineral apposition rate | serum FGF23 concentration (hyp-mice; Hyp-mice, D6R treated, daily ip for 5 weeks, saline 2126 ± 281, p<0.001): 1682 ± 191 | bone modeling (long bone circumference) (hyp-mice; hyp mouse): decreased to normal | length of the long bones in the extremities (hyp-mice; hyp mouse): increased | renal 25(OH)D3-1α-hydroxylase activity (translational abnormality) (hyp-mice; hyp mouse): normalized | degradation of serum FGF23 (hyp-mice; hyp mouse, D6R treatment, FIG. 3B): increased | degradation of intact FGF23 in hyp-mouse bone (hyp-mice; hyp mouse, ip x 5 weeks): enhanced | Fgf23 mRNA expression (hyp-mice; hyp mouse, ip x 5 weeks, FIG. 3A): decreased | Npt2a mRNA (hyp-mice; hyp mouse, kidney, FIGS. 2A-B): normalization | renal phosphate wasting and serum phosphorus levels (hyp-mice; hyp mouse, FIG. 1): normalization | Sost mRNA and the coded protein Sclerostin (hyp-mice; hyp mouse, FIG. 4): suppression | bone 7B2 mRNA expression (hyp-mice; hyp mouse, FIG. 5): stimulation | bone density normalization (hyp-mice; hyp mouse, FIG. 9): increasing | Osteoid surface/Bone surface (OS/BS) (hyp-mice; hyp mouse, FIG. 11A): decreasing | Mineralized area/Total Area (MA/TA ratios) (hyp-mice; hyp mouse, FIG. 11B): enhancing | rickets and osteomalacia (hyp-mice; hyp mouse, FIGS. 6-13): cured
